The values that follow come from patent publication US20260152504A1, “PYRIMIDINE SGC STIMULATORS” (Tisento Therapeutics Inc., priority 2022, published 2026).

The experiment has as its target T1, sGC (Rattus norvegicus, UniProt P20595).
T1 construct: Rat primary neurons were isolated from timed-pregnant female Sprague-Dawley (SD) rats; endogenous in cells; host or cells: rat primary neurons (Sprague-Dawley)
T1 sequence (P20595 1-619): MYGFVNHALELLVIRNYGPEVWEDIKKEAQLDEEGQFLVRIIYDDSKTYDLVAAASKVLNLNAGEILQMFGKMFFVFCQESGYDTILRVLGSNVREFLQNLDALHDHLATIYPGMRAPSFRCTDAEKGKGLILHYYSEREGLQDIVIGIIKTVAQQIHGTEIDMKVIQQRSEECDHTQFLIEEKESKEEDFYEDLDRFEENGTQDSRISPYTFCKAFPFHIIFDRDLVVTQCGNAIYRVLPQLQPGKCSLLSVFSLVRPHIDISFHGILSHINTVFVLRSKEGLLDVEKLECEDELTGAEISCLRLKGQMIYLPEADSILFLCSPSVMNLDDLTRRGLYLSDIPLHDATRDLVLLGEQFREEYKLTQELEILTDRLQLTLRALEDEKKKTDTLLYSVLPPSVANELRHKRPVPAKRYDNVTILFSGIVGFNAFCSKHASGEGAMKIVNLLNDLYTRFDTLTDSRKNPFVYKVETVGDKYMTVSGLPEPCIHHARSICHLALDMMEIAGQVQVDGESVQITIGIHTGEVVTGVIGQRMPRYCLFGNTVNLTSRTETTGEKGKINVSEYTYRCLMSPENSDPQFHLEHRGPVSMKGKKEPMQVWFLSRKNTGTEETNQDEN
T1 sequence (P19686 1-690 partner): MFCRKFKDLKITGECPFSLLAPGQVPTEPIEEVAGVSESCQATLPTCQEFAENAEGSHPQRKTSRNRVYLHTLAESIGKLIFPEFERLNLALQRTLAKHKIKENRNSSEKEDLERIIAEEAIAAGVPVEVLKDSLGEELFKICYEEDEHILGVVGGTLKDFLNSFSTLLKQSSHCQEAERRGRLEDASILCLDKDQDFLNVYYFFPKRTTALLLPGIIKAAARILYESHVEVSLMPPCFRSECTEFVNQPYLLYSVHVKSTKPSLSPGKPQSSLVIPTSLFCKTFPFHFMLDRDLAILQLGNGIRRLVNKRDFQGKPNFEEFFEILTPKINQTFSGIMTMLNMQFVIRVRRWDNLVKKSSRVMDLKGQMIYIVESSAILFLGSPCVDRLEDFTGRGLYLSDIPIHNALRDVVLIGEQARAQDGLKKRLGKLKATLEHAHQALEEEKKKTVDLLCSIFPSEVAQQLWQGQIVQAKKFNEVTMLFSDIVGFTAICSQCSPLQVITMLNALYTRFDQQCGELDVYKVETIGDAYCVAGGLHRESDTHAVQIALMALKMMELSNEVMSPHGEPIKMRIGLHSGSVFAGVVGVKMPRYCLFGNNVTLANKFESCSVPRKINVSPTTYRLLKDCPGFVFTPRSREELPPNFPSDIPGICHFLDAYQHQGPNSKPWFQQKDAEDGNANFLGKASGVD
The experiment can be described thus: cGMP measurement in rat primary neurons (neuronal-based cell assay). The settings on record: rat primary neurons (Sprague-Dawley); 0.5 mM IBMX; test compound with fixed DETA (Diethylenetriamine NONOate); 20 min at 37° C.; cGMP by CatchPoint kit; read-out: sGC Neuron EC50. On the procedure:
Example 2: cGMP Measurement in Rat Primary Neurons
Rat primary neurons were isolated from timed-pregnant female Sprague-Dawley (SD) rats, washed once with HBSS with calcium and magnesium and incubated with a solution containing 0.5 mM 3-isobutyl-1-methylxanthine (IBMX) in HBSS (80 μL/well) at 37° C. for 15 min. Next, a 5× stock […] of test compound with a fixed concentration of DETA (Diethylenetriamine NONOate) was added to the wells to make x nM concentration for test compound solutions and a 30 µM concentration for DETA solution, where x was 1 of the following final concentrations: 0.029, 0.114, 0.460, 1.83, 7.32, 29.29, 117.2, 468.8, 1875, 7500 and 30,000 nM. Then, the cells were incubated for 20 min at 37° C. At the end of incubation, 100 μL lysis buffer (Molecular Devices) was added to cells. CatchPoint™ Cyclic-GMP Fluorescent Assay Kit was used with Molecular Devices' ID3 multi-mode plate reading. Sample cGMP concentrations were extrapolated from standard curve using Softmax Pro 7 Software. A well-characterized, potent sGC stimulator was included in all assay runs and used as a positive control.
Test compound (“agonist”) concentrations vs extrapolated cGMP concentrations (“response”) were plotted and analyzed using GraphPad Prism version 9.4.1. Curve fit was used for each dataset; non-linear log(agonist) vs. response-variable slope (four parameters). The EC50 is interpolated from the curve fit and is defined as the concentration at which the compound elicits 50% of its maximal response. When the experiment is carried out more than two times, the geometric mean is reported, otherwise the arithmetic mean is shown. To increase the accuracy of the EC50 calculations, top and bottom parameters were constrained when consistent with the observed data in a given assay run. For instance, in assay runs where the cGMP response values in the absence of test article were consistent across plates, an average across all of these wells was used as a lower constraint in the calculations. In assay runs where the maximal cGMP responses were consistent with that of the positive control, a top constraint equal to the maximal cGMP response of the positive control was applied. If there was significant variability in cGMP response in no compound wells or variation in maximal responses across plates, no constraints were imposed.
Regarding `COc1cnc2c(Cc3cc(F)c(C)cc3F)nc(-c3ncc(C)c(O)n3)cn12` [Compound I-7, 2-(8-(2,5-difluoro-4-methylbenzyl)-3-methoxyimidazo[1,2-a]pyrazin-6-yl)-5-methylpyrimidin-4-ol], the half-maximal effective concentration (EC50) is above 5000 nM.

`CCc1cc(O)nc(-c2cn3ccnc3c(Cc3cc(F)c(C)cc3F)n2)n1` [Compound I-30, 2-{8-[(2,5-difluoro-4-methylphenyl)methyl]imidazo[1,2-a]pyrazin-6-yl}-6-ethylpyrimidin-4-ol]: the EC50 lay within 1000 to 5000 nM.

As for `CC(=O)c1ccc(Cc2nc(-c3ncc(F)c(O)n3)cn3c(Cl)cnc23)c(F)c1` [Compound I-9, 1-(4-((3-chloro-6-(5-fluoro-4-hydroxypyrimidin-2-yl)imidazo[1,2-a]pyrazin-8-yl)methyl)-3-fluorophenyl)ethan-1-one], the EC50 is above 5000 nM.

On to `COc1cnc2c(Cc3cc(F)c(C#N)cc3C)nc(-c3ncc(F)c(O)n3)cn12` [Compound I-32, 2-fluoro-4-((6-(5-fluoro-4-hydroxypyrimidin-2-yl)-3-methoxyimidazo[1,2-a]pyrazin-8-yl)methyl)-5-methylbenzonitrile], for which the 50% effective concentration (EC50) was above 5000 nM.

On to `CCOCc1nc(-c2cn3ncnc3c(Cc3cc(F)c(C)cc3F)n2)nc(O)c1F` [Compound I-44, 2-(8-(2,5-difluoro-4-methylbenzyl)-[1,2,4]triazolo[1,5-a]pyrazin-6-yl)-6-(ethoxymethyl)-5-fluoropyrimidin-4-ol], for which the half-maximal effective concentration (EC50) was above 5000 nM.

Consider `COCc1nc(-c2cn3ccnc3c(Cc3cc(F)c(C)cc3F)n2)nc(O)c1OC` [Compound I-27, 2-(8-(2,5-difluoro-4-methylbenzyl)imidazo[1,2-a]pyrazin-6-yl)-5-methoxy-6-(methoxymethyl)pyrimidin-4-ol], for which the EC50 was above 5000 nM.

Turning to `Cc1nc(-c2cn3c(C(C)O)cnc3c(Cc3cc(F)ccc3F)n2)nc(O)c1F` (stereo not shown) [Compound I-31, 2-(8-(2,5-difluorobenzyl)-3-(1-hydroxyethyl)imidazo[1,2-a]pyrazin-6-yl)-5-fluoro-6-methylpyrimidin-4-ol], the EC50 was above 5000 nM.

Consider `Cc1cc(F)c(Cc2nc(-c3ncc(F)c(O)n3)cn3c(CO)cnc23)cc1F` [Compound I-35, 2-(8-(2,5-difluoro-4-methylbenzyl)-3-(hydroxymethyl)imidazo[1,2-a]pyrazin-6-yl)-5-fluoropyrimidin-4-ol], for which the EC50 fell in the range of 1000 to 5000 nM.

For the compound `CC(=O)c1cnc(-c2cn3ccnc3c(Cc3cc(F)c(C)cc3F)n2)nc1O` [Compound I-24, 1-(2-(8-(2,5-difluoro-4-methylbenzyl)imidazo[1,2-a]pyrazin-6-yl)-4-hydroxypyrimidin-5-yl)ethan-1-one], the EC50 was 100 to 1000 nM.

With `COc1cnc2c(Cc3cc(F)c(C)cc3F)nc(-c3ncc(Cl)c(O)n3)cn12` [Compound I-29, 5-chloro-2-{8-[(2,5-difluoro-4-methylphenyl)methyl]-3-methoxyimidazo[1,2-a]pyrazin-6-yl}pyrimidin-4-ol], the EC50 fell in the range of 100 to 1000 nM.

For `Cc1cc(F)c(Cc2nc(-c3nc(O)cc(CCO)n3)cn3ccnc23)cc1F` [Compound I-26, 2-(8-(2,5-difluoro-4-methylbenzyl)imidazo[1,2-a]pyrazin-6-yl)-6-(2-hydroxyethyl)pyrimidin-4-ol], the half-maximal effective concentration (EC50) was above 5000 nM.

As to `Cc1cc(F)c(Cc2nc(-c3ncc(C(C)O)c(O)n3)cn3ccnc23)cc1F` (stereo not shown) [Compound I-28, 2-(8-(2,5-difluoro-4-methylbenzyl)imidazo[1,2-a]pyrazin-6-yl)-5-(1-hydroxyethyl)pyrimidin-4-ol], the EC50 lay in the range of 100 to 1000 nM.

For `N#Cc1cn2cc(-c3ncc(F)c(O)n3)nc(Cc3cc(F)c(F)cc3F)c2n1` [Compound I-3, 6-(5-fluoro-4-hydroxypyrimidin-2-yl)-8-(2,4,5-trifluorobenzyl)imidazo[1,2-a]pyrazine-2-carbonitrile], the EC50 is at most 100 nM.

Consider `COCc1nc(-c2cn3ccnc3c(Cc3cc(F)c(C)cc3F)n2)nc(O)c1F` [Compound I-22, 2-(8-(2,5-difluoro-4-methylbenzyl)imidazo[1,2-a]pyrazin-6-yl)-5-fluoro-6-(methoxymethyl)pyrimidin-4-ol], for which the EC50 is 100 to 1000 nM.

Take `CC(=O)c1cnc2c(Cc3cc(F)ccc3F)nc(-c3nc(C)c(F)c(O)n3)cn12` [Compound I-8, 1-(8-(2,5-difluorobenzyl)-6-(5-fluoro-4-hydroxy-6-methylpyrimidin-2-yl)imidazo[1,2-a]pyrazin-3-yl)ethan-1-one]: the EC50 is above 5000 nM.

Take `Cc1cc(F)c(Cc2nc(-c3nc(O)c(F)c(CF)n3)cn3ncnc23)cc1F` [Compound I-5, 2-(8-(2,5-difluoro-4-methylbenzyl)-[1,2,4]triazolo[1,5-a]pyrazin-6-yl)-5-fluoro-6-(fluoromethyl)pyrimidin-4-ol]: the EC50 was in the range of 1000 to 5000 nM.

In the case of `Cc1cc(F)c(Cc2nc(-c3ncc(C#N)c(O)n3)cn3c(F)cnc23)cc1F` [Compound I-17, 2-(8-(2,5-difluoro-4-methylbenzyl)-3-fluoroimidazo[1,2-a]pyrazin-6-yl)-4-hydroxypyrimidine-5-carbonitrile], the EC50 was at most 100 nM.

In the case of `Cc1cnc2c(Cc3cc(F)c(Cl)cc3F)nc(-c3nc(O)c(F)c(O)n3)cn12` [Compound I-6, 2-(8-(4-chloro-2,5-difluorobenzyl)-3-methylimidazo[1,2-a]pyrazin-6-yl)-5-fluoropyrimidine-4,6-diol], the EC50 was above 5000 nM.

For the compound `Cc1cc(F)c(Cc2nc(-c3ncc(CO)c(O)n3)cn3ccnc23)cc1F` [Compound I-25, 2-(8-(2,5-difluoro-4-methylbenzyl)imidazo[1,2-a]pyrazin-6-yl)-5-(hydroxymethyl)pyrimidin-4-ol], the EC50 was in the range of 100 to 1000 nM.

With `CSc1cnc2c(Cc3cc(F)c(C)cc3F)nc(-c3nc(O)c(C)c(Br)n3)cn12` [Compound I-12, 6-bromo-2-(8-(2,5-difluoro-4-methylbenzyl)-3-(methylthio)imidazo[1,2-a]pyrazin-6-yl)-5-methylpyrimidin-4-ol], the EC50 is above 5000 nM.

For `Cc1cc(F)c(Cc2nc(-c3nc(O)c(F)c(CF)n3)cn3ccnc23)cc1F` [Compound I-45, 2-(8-(2,5-difluoro-4-methylbenzyl)imidazo[1,2-a]pyrazin-6-yl)-5-fluoro-6-(fluoromethyl)pyrimidin-4-ol], the EC50 fell in the range of 100 to 1000 nM.

Turning to `COc1c(O)nc(-c2cn3ccnc3c(Cc3cc(F)c(C)cc3F)n2)nc1CF` [Compound I-21, 2-(8-(2,5-difluoro-4-methylbenzyl)imidazo[1,2-a]pyrazin-6-yl)-6-(fluoromethyl)-5-methoxypyrimidin-4-ol], the EC50 was in the range of 100 to 1000 nM.
